Measurements reported in US5912351A, “Anhydrous 1,4-Dihydropyridines and salts thereof” (Recordati, S.A. Chemical and Pharmaceutical Company, priority 1995, dated 1999).
Where two headings read alike, the source gives them in different places.

Tests used:
[1] = tested on: rat aortic smooth muscle cells (myocytes); test: Myocytes growth inhibition measured by cell count (rat myocytes); type: cell-based; details: 72 h, cell count after 72 hours, read-out: IC50 = concentration required to inhibit cell growth by 50%
Experimental: Migration of myocytes was investigated for the present invention using rat aortic smooth muscle cells in the presence of fibrinogen as chemotactic factor, whereas for studies on their proliferation rat and human cells were used. Cell count and [3H]-thymidine incorporation were used to evaluate myocytes growth. The methodology was as follows:
Myocytes were cultured from the intima-medial layer of the aortas of male Sprague-Dawley rats (200-250 g). Cells were grown in monolayers at 37° C. in a humidified atmosphere of 5% CO2 in Eagle's minimum essential medium supplemented with 10% (v/v) fetal calf serum, 100 U/ml penicillin, 0.1 mg/ml streptomycin, 20 mM tricine buffer and 1% (v/v) non-essential amino acid solution. The medium was changed every third day. Cells were used between the 4th and 10th passage. Cell viability was timely assessed by trypan blue exclusion. Myocytes were identified for growth behavior, morphology and using monoclonal antibody specific for a-actin, the actin isoform typical of myocytes. Human vascular myocytes (A 617 from human femoral artery) kindly provided by Prof. G. Gabbiani of The General Pathology Institute (Geneva University--Switzerland) were grown in the same culture conditions. (These or other human vascular myocytes can be obtained and cultured as described by Corsini et al., Atherosclerosis, 101: 117-125, (1993); Corsini et al., Pharm. Res, 23: 173 (1991); Ross, R, J. Cell Bio., 50: 172, (1971); and Skalli, 0. et al., J. Cell Bio., 103: 2787 (1986)).
Cells were seeded at various densities for rat (2×10^5) and human (5 10×10^4) myocytes/petri dish (35 mm), and incubated with Eagle's minimum essential medium supplemented with 10% fetal calf serum. Twenty-four hours later the medium was changed to one containing 0.4% fetal calf serum to stop cell growth, and the cultures were incubated for 72 hours. At this time (time 0) the medium was replaced by one containing 10% fetal calf serum in the presence or absence of known concentrations of the 1,4-dihydropyridine compounds being tested (shown in Table 1). The incubation was continued for an additional 72 hours at 37° C. Just before the addition of the test substances, an aliquot from each petri dish was used for cell counting. Cell proliferation was evaluated by cell count after trypsinization of the monolayers using a Coulter Counter model ZM. Cell viability was assessed by trypan blue exclusion, and found to be greater than 95% at the drug concentrations used.

enzyme ACAT = target: T1, enzyme ACAT (Mus musculus, UniProt Q61263); test: Cholesterol esterification in cholesterol ester loaded macrophages; type: cell-based; details: macrophages preloaded with cholesteryl esters
T1 construct: Mouse peritoneal macrophages were obtained by peritoneal lavage from mice; endogenous in cells; host or cells: peritoneal macrophages of Balb/c mice, three days after intraperitoneal thioglycolate
T1 sequence (Q61263 1-540): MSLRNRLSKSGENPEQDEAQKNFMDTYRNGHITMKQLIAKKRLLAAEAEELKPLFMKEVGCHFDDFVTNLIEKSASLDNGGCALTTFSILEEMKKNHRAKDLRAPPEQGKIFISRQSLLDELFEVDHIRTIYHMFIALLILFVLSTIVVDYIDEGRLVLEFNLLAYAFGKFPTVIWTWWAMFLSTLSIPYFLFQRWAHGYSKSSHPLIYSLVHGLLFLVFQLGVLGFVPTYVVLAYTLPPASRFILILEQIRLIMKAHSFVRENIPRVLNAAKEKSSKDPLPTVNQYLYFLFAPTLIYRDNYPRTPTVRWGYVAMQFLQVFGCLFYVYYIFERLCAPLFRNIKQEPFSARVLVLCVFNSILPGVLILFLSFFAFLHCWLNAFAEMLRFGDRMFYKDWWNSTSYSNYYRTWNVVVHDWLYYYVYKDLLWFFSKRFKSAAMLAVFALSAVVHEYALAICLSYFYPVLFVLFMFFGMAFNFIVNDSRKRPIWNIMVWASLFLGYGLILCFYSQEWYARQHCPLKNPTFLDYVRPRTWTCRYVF
Experimental: Cholesterol esterification induced by AcLDL in mouse peritoneal macrophages was investigated as follows. Mouse peritoneal macrophages were obtained by peritoneal lavage from mice (Balb/c Charles River, Calco, Italy) three days after intraperitoneal injection of thioglycolate. Cells (2×3×10^6) were plated in 35 mm wells with Dulbecco's minimum essential medium containing 10% fetal bovine serum. After 3 hours, the dishes were washed to eliminate unattached cells and maintained in Dulbecco's minimum essential medium plus 10% fetal bovine serum for 24 hours before use. After cell plating, experiments were performed at 37° C. in serum free Dulbecco's minimum essential medium containing 0.2% essentially fatty acid-free bovine serum albumin, AcLDL, a specific ACAT inhibitor, S-58035 (See C. A. Ross et al., J. Biol, Chem. 259: 815-819 (1984)), and lercanidipine, or the lercanidipine enantiomers indicated. Human LDL (d=1.019-1.063 g/ml) were isolated from plasma of healthy volunteers by sequential ultracentrifugation (Beckman L5-50, Palo Alto, Calif.). For acetylation, LDL were dialyzed against 0. 15 M NaCl , pH 7.4, diluted with an equal volume of saturated sodium acetate and treated with acetic anhydride. For [^125 1]AcLDL, lipoproteins were labelled with sodium [^125 I]iodide desalted by gel filtration on Sephadex G-25 eluted with phosphate buffered saline. Specific activity was 100-200 cpm/ng of protein. Trichloroacetic acid non-precipitable radioactivity was below 2% of total. All lipoproteins were sterile filtered. The cells were incubated for 24 hours with the tested compounds. […] Cholesterol esterification was measured after addition of [1-^14 C] oleic acid (0.68 mCi sample) complexed with bovine serum albumin during the last 1 or 2 hours of incubation by subsequent determination of radioactivity associated with cellular cholesteryl esters. […]
Cells, prepared according to the procedure in Example 6A, are loaded with cholesteryl esters by exposure for 24 hours to a medium containing 50 μg/ml acetyl LDL. ACAT inhibition was then determined as in Example 6A.

[2] = myocytes from SD (Sprague Dawley) rat
[3] = myocytes from SHR (Spontaneously Hypertensive) rat
[4] = myocytes from WK (Wistar Kyoto) rat

Row | Compound | IC50 [1, 2] | IC50 [1, 3] | IC50 [1, 4] | relative potency, cholesterol esterification (enzyme ACAT) | IC50 (enzyme ACAT; FIG. 4)
1 | COC(=O)C1=C(C)NC(C)=C(C(=O)OC(C)(C)CN(C)CCC(c2ccccc2)c2ccccc2)[C@@H]1c1cccc([N+](=O)[O-])c1 [(R)-LE, (R)-(-)METHYL 1,1-N-TRIMETHYL-N-(3,3-DIPHENYLPROPYL)-2-AMINOETHYL 1,4-DIHYDRO-2,6-DIMETHYL-4-(3-NITROPHENYL)PYRIDINE-3,5-DICARBOXYLATE] | 30.7 µM | 9.2 µM | 15.3 µM | slightly more potent than the racemate | ~7 µM
2 | COC(=O)C1=C(C)NC(C)=C(C(=O)OC(C)(C)CN(C)CCC(c2ccccc2)c2ccccc2)[C@H]1c1cccc([N+](=O)[O-])c1 [(S)-LE, (S)-(+)-METHYL 1,1-N-TRIMETHYL-N-(3,3-DIPHENYLPROPYL)-2-AMINOETHYL 1,4-DIHYDRO-2,6-DIMETHYL-4-(3-NITROPHENYL)PYRIDINE-3,5-DICARBOXYLATE] | 33.3 µM | 16.8 µM | 20.7 µM | least potent | 
